Laboratory results taken from patent US10034462B2, “Animal model of nash-induced hepatocellular carcinoma and methods for developing specific therapeutics” (THE REGENTS OF THE UNIVERSITY OF CALIFORNIA, priority 2015, dated 2018).

Tested on: WT HcPC-transplanted MUP-uPA mice
Experiment: Effect of TNF antagonist on HFD-induced acceleration of tumor growth in HcPC-transplanted MUP-uPA mice
Assay type: in vivo, mouse
Details: HFD for 5 months; 5 mg/kg i.p. three times a week during the last 7 weeks, vs vehicle
Text: FIGS. 13A-13J are pictorial and graphical diagrams showing analyses of HcPC transplanted MUP-uPA mice. […] Data are means±S.D. (n=3 per group). […] FIGS. 13C-13F show no differences in the severity of NASH and TNF expression in the background liver of MUP-uPA mice transplanted with either WT and Tnfr1^−/− HcPC. Body weight (FIG. 13C), serum ALT (FIG. 13D), expression of TNF mRNA in non-tumor tissues (FIG. 13E), liver steatosis (FIG. 13F) and fibrosis (FIG. 13G) in MUP-uPA mice transplanted with either WT or Tnfr1^−/− HcPC and kept on LFD or HFD are shown (scale bar=100 μm). Data are expressed as means±S.D. (n=10-11 per group). *p<0.05. […] 5 mg/kg etanercept or vehicle control was i.p. injected three times a week during the last 7 weeks. Representative images of livers and maximal tumor sizes are shown. Data are expressed as means±S.E.M. (control, n=10; etanercept, n=12). […] HcPC-transplanted Tnfr1^−/−/MUP-uPA mice were divided into two groups that were fed with either LFD or HFD, and 5 months later tumorigenesis was assessed. Representative images of livers and maximal tumor sizes are shown. Data are expressed as means±S.E.M. (n=10 per group).
DEN (Sigma) was i.p. injected into male mice (25 mg/kg) on postnatal day 14. After 5 months, HcPCs were isolated as described and transplanted into 4 weeks old MUP-uPA (He et al., 2013). […]

## Etanercept
  HCC growth (maximal tumor size): significantly suppressed
